Test results taken from patent US6492344B1, “Syndecan enhancer element and syndecan stimulation of cellular differentiation” (Biotie Therapies Corp., priority 1993, dated 2002).
“Also recorded” adds a separate entry of the source.

Experiments:
[1] = tested on: FGF-inducible Response Element (FiRE); assay: FiRE CAT assay with AP-1 activating agents in stable 3T3NIH cells; format: cell-based, mouse; conditions: minimal promoter, agents known to activate AP-1
Description: FIG. 24. […] Different agents known to induce fos-jun complexes and activate AP-1 driven promoters, were tested for FiRE activation in CAT assay with the minimal promoter transferred in stable 3T3NIH cells in the presence of protein kinase C activator (TPA, 10 mm), protein phosphatase 1 and 2 inhibitors (DA and calycalin A), a cAMP activator (forskolin), or a tyrosine phosphatase inhibitor (orthovanadate).
Agents Activating AP-1 Are Not Sufficient for FiRE Activation. Since FiRE contains AP-1 transcription factors, whose activation is well characterized, we tested chemicals known to cause AP-1 dependent gene activation. These included the protein kinase C (PKC) activator 12-O-tetradecanoylphorpol-13-acetate (TPA), protein-phosphate-1 and -2 inhibitors okadaic acid and calyculin A, cAMP activator forskolin and tyrosine kinase phosphatase inhibitor orthovanadate (FIG. 24a).

[2] = tested on: syndecan-1 expression in MCF-7 cells; assay: Syndecan mRNA expression in MCF-7 cells under estrogen and toremifene; format: cell-based, human; conditions: MCF-7 cells exposed to estrogen, then anti-estrogen treatment
Description: (§1) The steroid-responsive human breast cancer cell line MCF-7 was used to study the expression of human syndecan under different growth conditions regulated by estrogen and anti-estrogen. Cells were plated at a density of 1.2×10^6 cells/100 mm of plastic culture dish and grown as monolayer cultures in 10 ml per dish of phenol red-free DMEM medium with 5% dextran/charcoal treated fetal calf serum (DS-FCS), 2 mM L-glutamine and 3 μg/ml insulin. […] The cells were cultured for 6 days, and the media were changed every second day. For RNA extraction, cells were washed in situ with PBS and scraped from the plates in 4 M guanidine isothiocyanate.

MCF-7 cells = assay: Growth behavior of MCF-7 cells under estrogen and toremifene; format: cell-based, human; conditions: MCF-7 cells exposed to estrogen, then toremifene
Description: as §1

[3] = tested on: FGF-inducible Response Element (FiRE); assay: pFiRE CAT reporter activation by growth factors in 3T3NIH cells; format: cell-based, mouse; conditions: pFiRE transfected 3T3NIH cells; 10 ng/ml growth factor (2 ng/ml TGF-β) or 5% FCS, 2 days
Description: Each of these plasmids was transiently transfected into 3T3NIH cells, using the calcium phosphate precipitation method (Chen and Okayama, Mol. Cell Biol. 7:2745-2752 (1987)) as follows. For transient transfections NIH3T3 cells were plated at equal density on six-well plates (Falcon) two days before transfection. Plasmid DNA was transfected into cells by calcium phosphate method (Chen and Okayama, Mol. Cell Biol. 7:2745-2752 (1987)). A β-galactosidase expressing plasmid (pSV-β-galactosidase, Promega) was co-transfected with CAT constructs to monitor transfection efficiencies. Three parallel transfections were used in every assay. Directly after transfection growth factors were added, media change the next day and cells were harvested after two days. CAT activities were measured by liquid scintillation and β-galactosidase activities spectrophotometrically at 420 nm as described by Vihinen et al., J. Biol. Chem 268:17261-17269 (1993)). As a control, other samples of the cells transfected with each plasmid were treated with buffer without FGF-2 for the same time periods.
For the gene expression analysis the fragments of the syndecan-1 upstream region were subcloned from mouse genomic clones into the XbaI site of the pCATProm vector in which a mouse syndecan-1 promoter region (−1310 to +140) was fused to the CAT reporter gene (Vihinen et al., J. Biol. Chem. 271:12532-12541 (1996)). The pX-HIIICAT plasmid was prepared by cloning HindIII-XhoI promoter fragment (−2400 to +140 bp) into the promoterless pCAT basic vector (Promega). For pXSp1 and 2 plasmids, SphI fragments −11.4 to −10.5 kb and −10.5 to −9.4 kb, respectively) were deleted from pXb6CAT (−11.6 to −9.4 kb). Constructs pXS2, pXB3 and pXX1 were generated by ligating SphI-EarI/blunt (−10.5 to −10.1 kb), EarI/blunt fragment (−10.1 to −9.8 kb) and EarI/blunt-XbaI (−9.8 to −9.4 kb) from pXSpI into SphI-AccI/blunt, AccI/blunt or XbaI-SphIlblunt sites, respectively, into the pCATProm vector. Blunt ended fragments were made by T4 polymerase (Promega). For FiRE and FiREREV a PstI-StyI/blunt fragment was subcloned into PstI-EcoRV or PstI-SmaI sites of the pBluescript vector and then transfected to Xba-SphI sites in pCATProm vector. These constructs were then used to transient transfect NIH3T3 cells as described supra, and CAT activity was measured.
Effect of Various Growth Factors on Enhancer Activation in NIH3T3 Cells. Plasmid pFiRE was transfected into 3T3NIH cells as described, supra. The cells were starved in DMEM medium supplemented with 5% fetal calf serum to about 70% confluence. Fetal calf serum was then replaced with 2% carboxy-methyl-Sephadex eluted fetal calf serum (CMS) 12 hrs before adding the growth factors. Various growth factors in the same medium, 5% fetal calf serum (FCS) supplemented medium or a control containing the medium, without any added growth factors were incubated with the transfected cells for 2 days, and CAT activity was measured. The effect of 10 ng/ml of FGF-2, FGF-1, FGF-4, FGF-7 (KGF), EGF, IGF1, TGFα, IFNγ, and PDGF and 2 ng/ml TGF-β were tested. The human recombinant growth factors were purchased from Peprotech (FGF-1, -2, and -7), Boehringer (FGF-2) or from Calbiochem (PDGF) TGF-β was purchased from Sigma. The effect of the added growth factors and FCS on DNA synthesis was also tested by a 125-IdU incorporation assay. […] Radioactivity was measured using a gamma counter (Wallac).

3T3NIH cells = assay: 125-IdU incorporation (DNA synthesis) assay in 3T3NIH cells; format: cell-based, mouse; conditions: pFiRE transfected 3T3NIH cells; 10 ng/ml growth factor (2 ng/ml TGF-β) or 5% FCS
Source text: Effect of Various Growth Factors on Enhancer Activation in NIH3T3 Cells. Plasmid pFiRE was transfected into 3T3NIH cells as described, supra. The cells were starved in DMEM medium supplemented with 5% fetal calf serum to about 70% confluence. Fetal calf serum was then replaced with 2% carboxy-methyl-Sephadex eluted fetal calf serum (CMS) 12 hrs before adding the growth factors. Various growth factors in the same medium, 5% fetal calf serum (FCS) supplemented medium or a control containing the medium, without any added growth factors were incubated with the transfected cells for 2 days, and CAT activity was measured. The effect of 10 ng/ml of FGF-2, FGF-1, FGF-4, FGF-7 (KGF), EGF, IGF1, TGFα, IFNγ, and PDGF and 2 ng/ml TGF-β were tested. The human recombinant growth factors were purchased from Peprotech (FGF-1, -2, and -7), Boehringer (FGF-2) or from Calbiochem (PDGF) TGF-β was purchased from Sigma. The effect of the added growth factors and FCS on DNA synthesis was also tested by a 125-IdU incorporation assay. This cell proliferation assay was carried out by incubating cells for 4-6 hrs with 0.25 μCi/ml 5-[^125I]iodo-2′-deoxyuridine (IdU, Amersham), washed several times with PBS and solubilized in 1 M NaOH. Radioactivity was measured using a gamma counter (Wallac).

[4] = tested on: FGF-inducible Response Element (FiRE); assay: FiRE / Syn Prom CAT reporter in MCA3D keratinocytes; format: cell-based; conditions: MCA3D mouse keratinocytes transfected with FiRE construct
Description: The cells used for proximal promoter constructs were 3T3 NIH, S115 (either hormone-treated or not) and nMuMG cells. For enhancer constructs we used 3T3 NIH cells grown in 2% CMS medium and MCA 3D cells grown in Ham's medium. 3T3 NIH cells were also used to test the effect of growth factors in 2% CMS medium with 10 ng/ml FGF-2 and 2ng/ml TGFβ-1. MCA 3D cells were used to test the effect of 10 ng/ml KGF.
FiRE is Induced Selectively by FGF-7 in Keratinocytes. The ability of FiRE to enhance transcription was tested in the mouse keratinocyte cell line MCA3D (Kuliz-Martin et al., Carcinogenesis 4:1367-1377 (1983)). MCA3D cells were transfected as described supra for mouse NIH3T3 cells. Following transfection, the cells were treated with fetal calf serum, PDGF, FGF-1, FGF-2, and FGF-7 as described supra for the NIH3T3 cells.

syndecan-1 gene = assay: Syndecan-1 mRNA quantification in 3T3NIH cells exposed to FGF-2; format: cell-based, mouse; conditions: TGF-β alone
Source text: Northern Blot—RNA was isolated from 3T3 and NMuMG cells using 4 M guanidine isothiocyanate and CsCl density centrifugation (Chirgwin et al., Biochemistry 18:5294-5299 (1979)). RNA samples were size-separated on a 1% agarose formaldehyde gel, transferred to a GeneScreen Plus™ membrane (New England Nuclear) and hybridized with a multi-prime (Amersham) labeled partial cDNA clone for mouse syndecan (PM-4) (Saunders et al., J. Cell Biol. 108:1547-1556 (1989)). After hybridization, the membrane was washed in 2×SSC and 1.0% SDS at 65° C. (high stringency conditions). For rehybridization with glyceraldehyde-3-phosphate-dehydrogenase (GAPDH; Fort et al., Nucleic Acid Res. 13:1431-1442 (1985)), the bound PM-4 probe was removed as recommended by the manufacturer of the filter (NEN).
Following incubation with FGF-2, syndecan MRNA was isolated and quantified. Control incubations without FGF-2 were also performed. Syndecan mRNA was isolated and quantified […] FGF-2 treatment following 6, 12, and 24 hr incubations. The quantification of syndecan mRNA production can be seen in FIG. 11a. GAPDH mRNA was used as a loading control. […] The enhancement appears to be maximal at about 6 hrs of FGF-2 incubation, and decreases thereafter. In the Figure, two individual exposures for each time point are presented.

Compound | FiRE activation (CAT assay) [1] | FiRE enhancer activation (CAT reporter activity) [3] | DNA synthesis / cell proliferation (125-IdU incorporation) (3T3NIH cells) | further results
CCCCCCCCCCCCCC(=O)O[C@@H]1[C@@H](C)[C@@]2(O)[C@@H](C=C(CO)C[C@]3(O)C(=O)C(C)=C[C@@H]23)[C@H]2C(C)(C)[C@]12OC(C)=O [TPA, 12-O-tetradecanoylphorpol-13-acetate] | none of the other compounds known to induce immediate early genes fos and jun and AP-1 driven promoters, were able to activate FiRE; also recorded: do not activate |  |  | 
COC[C@@H]([C@H](O)[C@H](O)C(=O)NCC[C@H](C)c1nc(/C=C/C[C@@H]2O[C@]3(C[C@@H](O)[C@@H]2C)O[C@H]([C@H](C[C@H](O)[C@H](C)[C@H](O)[C@H](C)/C=C(C)/C(C)=C/C=C/C(C)=C\C#N)OC)[C@H](OP(=O)(O)O)C3(C)C)co1)N(C)C [calyculin A] | none of the other compounds known to induce immediate early genes fos and jun and AP-1 driven promoters, were able to activate FiRE |  |  | 
C=C1[C@@H](O)[C@@H]2O[C@]3(CC[C@H](/C=C/[C@@H](C)[C@@H]4CC(C)=C[C@@]5(O[C@H](C[C@@](C)(O)C(=O)O)CC[C@H]5O)O4)O3)CC[C@H]2O[C@@H]1[C@@H](O)C[C@H](C)[C@H]1O[C@@]2(CCCCO2)CC[C@H]1C [okadaic acid] | none of the other compounds known to induce immediate early genes fos and jun and AP-1 driven promoters, were able to activate FiRE |  |  | 
[O]=[V]([O-])([O-])[O-] [orthovanadate] | resulted in activation of FiRE |  |  | 
CN(C)CCOc1ccc(/C(=C(/CCCl)c2ccccc2)c2ccccc2)cc1 [toremifene] |  |  |  | syndecan-1 expression [2]: reverse their lowered syndecan expression; also recorded: restored syndecan-1 expression to levels close to that found in cells not exposed to estrogen; growth behavior of cells (MCF-7 cells): aided the cells in maintaining their normal growth behavior
EGF: epidermal growth factor (NSDSECPLSHDGYCLHDGVCMYIEALDKYACNCVVGYIGERCQYRDLKWWELR; Epidermal growth factor; UniProt P01133 971-1023, looked up) |  | no significant enhancer activation; also recorded: no effect on enhancer activity | significant increase in DNA synthesis; also recorded: enhanced cell proliferation to a similar extent as FGF-2 | 
FGF-1: human recombinant growth factor, FGF family member |  | did not activate or suppress; also recorded: lower effect | significant increase in DNA synthesis | FiRE activation [4]: failed to activate FiRE; also recorded: did not activate FiRE
IGF: growth factor IGF1 tested at 10 ng/ml |  | no effect on enhancer activity | enhanced cell proliferation to a similar extent as FGF-2 | 
PDGF |  | no significant enhancer activation; also recorded: no effect on enhancer activity | significant increase in DNA synthesis; also recorded: enhanced cell proliferation to a similar extent as FGF-2 | FiRE activation [4]: failed to activate FiRE; also recorded: did not activate FiRE
TGF-β: transforming growth factor beta; porcine TGFβ1 |  | no significant enhancer activation | significant increase in DNA synthesis | activation of the syndecan-1 gene (syndecan-1 gene): cannot activate the syndecan-1 gene
